Among the data in patent US20210369853A1, “TARGETED PROTEASE DEGRADATION PLATFORM” (EUBULUS BIOTHERAPEUTICS INC., priority 2018, published 2021) are EC50 values, retold here.

The test system of the test is Human Monocytic Leukemia MV4-11. Kind of test: Cell proliferation experiment (Alarm blue, 72 h, EC50). In kind it is cell-based. The following applies: Homo sapiens, MV4-11, MV4;11 cells. The procedure:
(2.1) Cell Proliferation Experiment:
Reagents: RPMI-1640 medium, McCoy's 5A medium, IMDM medium, MEM medium, L-15 medium, fetal bovine serum, Penicillin-Streptomycin double antibody, trypsin, etc., 2-mercaptoethanol, NEAA, pyruvate, etc.
The cells were cultured in conventional ways, and the cells should be passed at least for at least 2 generations before plating. Cells at the logarithmic growth phase are collected, prepared into single cell suspensions and counted. The concentration of cells was adjusted to the desired concentration, and cells were inoculated into a 96-well cell culture plate at 100 μl per well. 100 μL of complete medium of the test compound were added to each well, set up 2 duplicates for each concentration, and diluted with a 5-fold gradient, and continue to culture for 72 h. All cells were subjected to EC50 test for corresponding samples.
The fluorescence intensity of each well was detected using the Alarm blue method, and EC50 was calculated.
EC50 was calculated according to the following formula:
Y=Max+(Min−Max)/[1+(X/EC50)×Slope]
wherein Min, Max and Slope represent the minimum, maximum and slope respectively.
The compound `Cc1ncsc1-c1ccc(CNC(=O)[C@@H]2C[C@@H](O)CN2C(=O)[C@@H](NC(=O)CCCNC(=O)c2ccc(Nc3ncc4c(n3)-c3ccc(Cl)cc3C(c3c(F)cccc3F)=NC4)cc2)C(C)(C)C)cc1` [UB-180505] returned an EC50 of 100 to 1000 nM.
For `Cc1ncsc1-c1ccc(CNC(=O)[C@@H]2C[C@@H](O)CN2C(=O)[C@@H](NC(=O)COCCCNC(=O)c2ccc(Nc3ncc4c(n3)-c3ccc(Cl)cc3C(c3c(F)cccc3F)=NC4)cc2)C(C)(C)C)cc1` [UB-180506], the EC50 lay within 100 to 1000 nM.
The result for `Cc1ncsc1-c1ccc(CNC(=O)[C@@H]2C[C@@H](O)CN2C(=O)[C@@H](NC(=O)COCCOCCOCCNC(=O)c2ccc(Nc3ncc4c(n3)-c3ccc(Cl)cc3C(c3c(F)cccc3F)=NC4)cc2)C(C)(C)C)cc1` [UB-180514] reads 10 to 100 nM; that for `Cc1ncsc1-c1ccc(CNC(=O)[C@@H]2C[C@@H](O)CN2C(=O)[C@@H](NC(=O)COCCOCCOCCOCCNC(=O)c2ccc(Nc3ncc4c(n3)-c3ccc(Cl)cc3C(c3c(F)cccc3F)=NC4)cc2)C(C)(C)C)cc1` [UB-180527], greater than 1000 nM; that for `Cc1ncsc1-c1ccc(CNC(=O)[C@@H]2C[C@@H](O)CN2C(=O)[C@@H](NC(=O)CCOCCOCCOCCOCCNC(=O)c2ccc(Nc3ncc4c(n3)-c3ccc(Cl)cc3C(c3c(F)cccc3F)=NC4)cc2)C(C)(C)C)cc1` [UB-180531], 10 to 100 nM.
The result for `Cc1ncsc1-c1ccc(CNC(=O)[C@@H]2C[C@@H](O)CN2C(=O)[C@@H](NC(=O)COCCNC(=O)c2ccc(Nc3ncc4c(n3)-c3ccc(Cl)cc3C(c3c(F)cccc3F)=NC4)cc2)C(C)(C)C)cc1` [UB-180532] reads 100 to 1000 nM; that for `Cc1ncsc1-c1ccc(CNC(=O)[C@@H]2C[C@@H](O)CN2C(=O)[C@@H](NC(=O)COCCOCCNC(=O)c2ccc(Nc3ncc4c(n3)-c3ccc(Cl)cc3C(c3c(F)cccc3F)=NC4)cc2)C(C)(C)C)cc1` [UB-180533], 100 to 1000 nM; that for `Cc1ncsc1-c1ccc(CNC(=O)[C@@H]2C[C@@H](O)CN2C(=O)[C@@H](NC(=O)CCOCCOCCNC(=O)c2ccc(Nc3ncc4c(n3)-c3ccc(Cl)cc3C(c3c(F)cccc3F)=NC4)cc2)C(C)(C)C)cc1` [UB-180536], 100 to 1000 nM.
The result for `Cc1ncsc1-c1ccc(CNC(=O)[C@@H]2C[C@@H](O)CN2C(=O)[C@@H](NC(=O)COCCCCNC(=O)c2ccc(Nc3ncc4c(n3)-c3ccc(Cl)cc3C(c3c(F)cccc3F)=NC4)cc2)C(C)(C)C)cc1` [UB-180558] reads 100 to 1000 nM.
`CC[C@@H]1C(=O)N(C)c2cnc(Nc3ccc(C(=O)NCCOCCOCCNc4cccc5c4CN(C4CCC(=O)NC4=O)C5=O)cc3OC)nc2N1Cc1ccc(Br)cc1` (some centres unmarked) [UB-180568] yielded an EC50 of 10 to 100 nM.
With `CC[C@@H]1C(=O)N(C)c2cnc(Nc3ccc(C(=O)NCCOCCOCCOCCNc4cccc5c4CN(C4CCC(=O)NC4=O)C5=O)cc3OC)nc2N1Cc1ccc(Br)cc1` (some centres unmarked) [UB-180569] the figure was 10 to 100 nM; with `CC[C@@H]1C(=O)N(C)c2cnc(Nc3ccc(C(=O)NCC(=O)Nc4cccc5c4CN(C4CCC(=O)NC4=O)C5=O)cc3OC)nc2N1C1CCCC1` (some centres unmarked) [UB-180570], greater than 1000 nM; with `CC[C@@H]1C(=O)N(C)c2cnc(Nc3ccc(C(=O)NC4(C(=O)Nc5cccc6c5CN(C5CCC(=O)NC5=O)C6=O)CC4)cc3OC)nc2N1C1CCCC1` (some centres unmarked) [UB-180571], 100 to 1000 nM.
As to `Cc1ncsc1-c1ccc(CNC(=O)[C@@H]2C[C@@H](O)CN2C(=O)[C@@H](NC(=O)CCOCCOCCOCCOCCNC(=O)[C@]2(Cc3cccc(Nc4nccs4)n3)CC[C@@H](Oc3cccc(Cl)c3F)CC2)C(C)(C)C)cc1` [UB-180576], the EC50 is 100 to 1000 nM.
The result for `Cc1ncsc1-c1ccc(CNC(=O)[C@@H]2C[C@@H](O)CN2C(=O)[C@@H](NC(=O)COCCNC(=O)[C@]2(Cc3cccc(Nc4nccs4)n3)CC[C@@H](Oc3cccc(Cl)c3F)CC2)C(C)(C)C)cc1` [UB-180578] reads greater than 1000 nM; that for `Cc1ncsc1-c1ccc(CNC(=O)[C@@H]2C[C@@H](O)CN2C(=O)[C@@H](NC(=O)COCCOCCOCCOCCNC(=O)[C@]2(Cc3cccc(Nc4nccs4)n3)CC[C@@H](Oc3cccc(Cl)c3F)CC2)C(C)(C)C)cc1` [UB-180580], 100 to 1000 nM.
Take `Cc1ncsc1-c1ccc(CNC(=O)[C@@H]2C[C@@H](O)CN2C(=O)[C@@H](NC(=O)CCCNC(=O)[C@]2(Cc3cccc(Nc4nccs4)n3)CC[C@@H](Oc3cccc(Cl)c3F)CC2)C(C)(C)C)cc1` [UB-180583]: the concentration giving a half-maximal response (EC50) fell in the range of 100 to 1000 nM.
Take `Cc1ncsc1-c1ccc(CNC(=O)[C@@H]2C[C@@H](O)CN2C(=O)[C@@H](NC(=O)COCCOCCOCCNC(=O)[C@]2(Cc3cccc(Nc4nccs4)n3)CC[C@@H](Oc3cccc(Cl)c3F)CC2)C(C)(C)C)cc1` [UB-180584]: the EC50 is 100 to 1000 nM.
With `Cc1ncsc1-c1ccc(CNC(=O)[C@@H]2C[C@@H](O)CN2C(=O)[C@@H](NC(=O)COCCCNC(=O)[C@]2(Cc3cccc(Nc4nccs4)n3)CC[C@@H](Oc3cccc(Cl)c3F)CC2)C(C)(C)C)cc1` [UB-180585] the figure was greater than 1000 nM; with `Cc1ncsc1-c1ccc(CNC(=O)[C@@H]2C[C@@H](O)CN2C(=O)[C@@H](NC(=O)COCCOCCNC(=O)[C@]2(Cc3cccc(Nc4nccs4)n3)CC[C@@H](Oc3cccc(Cl)c3F)CC2)C(C)(C)C)cc1` [UB-180587], greater than 1000 nM.
With `Cc1ncsc1-c1ccc(CNC(=O)[C@@H]2C[C@@H](O)CN2C(=O)[C@@H](NC(=O)COCCCCNC(=O)[C@]2(Cc3cccc(Nc4nccs4)n3)CC[C@@H](Oc3cccc(Cl)c3F)CC2)C(C)(C)C)cc1` [UB-180589] the figure was greater than 1000 nM.
The result for `CC[C@@H]1c2c(C#N)ncn2-c2cnc(Nc3ccc(C(=O)NC4CCN(CCCCC(=O)N[C@H](C(=O)N5C[C@H](O)C[C@H]5C(=O)NCc5ccc(-c6scnc6C)cc5)C(C)(C)C)CC4)cc3OC)nc2N1C1CCCC1` [UB-180591] reads 100 to 1000 nM.
The compound `CC[C@@H]1c2c(C#N)ncn2-c2cnc(Nc3ccc(C(=O)NCC(=O)N[C@H](C(=O)N4C[C@H](O)C[C@H]4C(=O)NCc4ccc(-c5scnc5C)cc4)C(C)(C)C)cc3OC)nc2N1C1CCCC1` [UB-180592] had an EC50 of 100 to 1000 nM.
With `CC[C@@H]1c2c(C#N)ncn2-c2cnc(Nc3ccc(C(=O)NCCCNc4cccc5c4C(=O)N(C4CCC(=O)NC4=O)C5=O)cc3OC)nc2N1C1CCCC1` (some centres unmarked) [UB-180593] the figure was 100 to 1000 nM; with `CC[C@@H]1C(=O)N(C)c2cnc(Nc3ccc(C(=O)NC4CCN(CCCCC(=O)Nc5cccc6c5CN(C5CCC(=O)NC5=O)C6=O)CC4)cc3OC)nc2N1C1CCCC1` (some centres unmarked) [UB-180596], 10 to 100 nM.
The result for `CC[C@@H]1c2c(C#N)ncn2-c2cnc(Nc3ccc(C(=O)NC4CCN(CCCCCOCC(=O)N[C@H](C(=O)N5C[C@H](O)C[C@H]5C(=O)NCc5ccc(-c6scnc6C)cc5)C(C)(C)C)CC4)cc3OC)nc2N1C1CCCC1` [UB-180597] reads greater than 1000 nM.
The result for `Cc1ncsc1-c1ccc(CNC(=O)[C@@H]2C[C@@H](O)CN2C(=O)[C@@H](NC(=O)CCOCCOCCNC(=O)[C@]2(Cc3cccc(Nc4nccs4)n3)CC[C@@H](Oc3cccc(Cl)c3F)CC2)C(C)(C)C)cc1` [UB-180599] reads greater than 1000 nM.
`Cc1ncsc1-c1ccc(CNC(=O)[C@@H]2C[C@@H](O)CN2C(=O)[C@@H](NC(=O)CCOCCCOCCOCCNC(=O)[C@]2(Cc3cccc(Nc4nccs4)n3)CC[C@@H](Oc3cccc(Cl)c3F)CC2)C(C)(C)C)cc1` [UB-180600] gave a concentration giving a half-maximal response (EC50) of 100 to 1000 nM.
With `CC[C@@H]1c2c(C#N)ncn2-c2cnc(Nc3ccc(C(=O)NCCNc4cccc5c4C(=O)N(C4CCC(=O)NC4=O)C5=O)cc3OC)nc2N1C1CCCC1` (some centres unmarked) [UB-180607] the figure was 10 to 100 nM.

By EC50 is commonly meant the concentration that produces a half-maximal response. The low end stands for an effect from little substance, the high end for a need for much substance.
